Assay results as given in ChEMBL document CHEMBL3808348, “Rational Design, Synthesis, and Biological Evaluation of 7-Azaindole Derivatives as Potent Focused Multi-Targeted Kinase Inhibitors” (J Med Chem, 2016).

How the values were obtained:
[1] = target: T1, Tyrosine-protein kinase FRK (Homo sapiens, UniProt P42685); settings: 100 nM
Description: Inhibition of GST-tagged full length human recombinant FRK expressed in baculovirus using Fluorescein-Poly GT as substrate at 100 nM

[2] = target: Insulin receptor-related protein (Homo sapiens) (UniProt P14616); settings: 100 nM
Description: Inhibition of GST-tagged human recombinant INSRR (944 to 1297 residues) expressed in baculovirus using Fluorescein-Poly GT as substrate at 100 nM

[3] = target: Protein kinase C delta type (Homo sapiens) (UniProt Q05655); settings: 100 nM
Description: Inhibition of full length human recombinant PKCdelta expressed in baculovirus using Fluorescein-PKC as substrate at 100 nM

[4] = target: Vascular endothelial growth factor receptor 1 (Homo sapiens) (UniProt P17948); settings: 100 nM
Description: Inhibition of GST-tagged human recombinant VEGFR1 (781 to 1338 residues) expressed in baculovirus using Fluorescein-Poly GT as substrate at 100 nM

[5] = target: Tyrosine-protein kinase Blk (Homo sapiens) (UniProt P51451); test: Inhibition of His-tagged full length human recombinant BLK expressed in baculovirus using Fluorescein-Poly GT as substrate at 100 nM
[6] = target: Myosin light chain kinase, smooth muscle (Homo sapiens) (UniProt Q15746); settings: 100 nM
Description: Inhibition of GST-tagged human recombinant MLCK (1428 to 1771 residues) expressed in baculovirus at 100 nM

[7] = target: Cytoplasmic tyrosine-protein kinase BMX (Homo sapiens) (UniProt P51813); test: Inhibition of His-tagged full length human recombinant BMX expressed in baculovirus using Fluorescein-Poly GT as substrate at 100 nM
[8] = target: Protein kinase C theta type (Homo sapiens) (UniProt Q04759); settings: 100 nM
Description: Inhibition of full length His-tagged human recombinant PKCtheta expressed in baculovirus using Fluorescein-PKC as substrate at 100 nM

[9] = target: Testis-specific serine/threonine-protein kinase 2 (Homo sapiens) (UniProt Q96PF2); settings: 100 nM
Description: Inhibition of His-tagged full length human recombinant TSSK2 expressed in baculovirus at 100 nM

[10] = target: High affinity nerve growth factor receptor (Homo sapiens) (UniProt P04629); settings: 100 nM
Description: Inhibition of His-tagged human recombinant TRKA (441 to 796 residues) expressed in baculovirus using Fluorescein-Poly GT as substrate at 100 nM

[11] = target: Serine/threonine-protein kinase Chk2 (Homo sapiens) (UniProt O96017); settings: 100 nM
Description: Inhibition of His-tagged human recombinant CHK2 expressed in baculovirus using Fluorescein-CREBtide as substrate at 100 nM

[12] = Cmax in Swiss mouse plasma at 20 mg/kg, po by LC/MS/MS analysis; assay type: ADME, organism-based; design: dose 20 mg/kg, route oral
[13] = target: Tyrosine-protein kinase BTK (Homo sapiens) (UniProt Q06187); settings: 100 nM
Description: Inhibition of His-tagged full length human recombinant BTK expressed in baculovirus using Fluorescein-Poly GT as substrate at 100 nM

[14] = target: Calcium/calmodulin-dependent protein kinase type II subunit delta (Homo sapiens) (UniProt Q13557); settings: 100 nM
Description: Inhibition of full length His-tagged human recombinant CaMK2 delta expressed in baculovirus using Fluorescein-CREBtide as substrate at 100 nM

[15] = target: Proto-oncogene tyrosine-protein kinase ROS (Homo sapiens) (UniProt P08922); settings: 100 nM
Description: Inhibition of GST-tagged human recombinant ROS1 (1883 to 2347 residues) expressed in baculovirus using Fluorescein-Poly GT as substrate at 100 nM

[16] = target: Myotonin-protein kinase (Homo sapiens) (UniProt Q09013); settings: 100 nM
Description: Inhibition of full length GST-tagged human recombinant DMPK expressed in baculovirus expression system at 100 nM

[17] = target: T2, Proto-oncogene tyrosine-protein kinase Src (Homo sapiens, UniProt P12931); test: Inhibition of full length His-tagged human recombinant cSRC expressed in baculovirus using Fluorescein-Poly GT as substrate at 100 nM
[18] = target: Glycogen synthase kinase-3 beta (Homo sapiens) (UniProt P49841); settings: 100 nM
Description: Inhibition of GSK3B (unknown origin) at 100 nM

[19] = target: Tyrosine-protein kinase receptor TYRO3 (Homo sapiens) (UniProt Q06418); settings: 100 nM
Description: Inhibition of GST-tagged human recombinant TYRO3 (451 to 890 residues) expressed in baculovirus using Fluorescein-Poly GT as substrate at 100 nM

[20] = target: Insulin-like growth factor 1 receptor (Homo sapiens) (UniProt P08069); settings: 100 nM
Description: Inhibition of His-tagged human recombinant IGF1R (960 to 1397 residues) expressed in baculovirus using Fluorescein-Poly GT as substrate at 100 nM

hERG (KCNH2) = hERG (KCNH2) (Homo sapiens, UniProt Q12809); test: Inhibition of human ERG expressed in HEK293 cells at 30 uM by patch clamp assay; assay type: cell-based; settings: HEK293 cells expressing human ERG
[21] = target: Tyrosine-protein kinase ABL1 (Homo sapiens, UniProt P00519, Y253F); test: Inhibition of His-tagged full length human recombinant ABL Y253F mutant expressed in baculovirus using Fluorescein-Poly GT as substrate
[22] = target: Megakaryocyte-associated tyrosine-protein kinase (Homo sapiens) (UniProt P42679); settings: 100 nM
Description: Inhibition of His-tagged full length human recombinant MATK expressed in Escherichia coli using Fluorescein-Poly GT as substrate at 100 nM

[23] = target: Aurora kinase A (Homo sapiens) (UniProt O14965); settings: 100 nM
Description: Inhibition of full length His-tagged human recombinant Aurora A expressed in baculovirus using Fluorescein-CREBtide as substrate at 100 nM

[24] = target: Ephrin type-B receptor 4 (Homo sapiens) (UniProt P54760); settings: 100 nM
Description: Inhibition of His-tagged human recombinant EPHB4 (561 to 987 residues) expressed in baculovirus using Fluorescein-Poly GT as substrate at 100 nM

[25] = target: Tyrosine-protein kinase HCK (Homo sapiens, UniProt P08631); test: Inhibition of GST-tagged full length human recombinant HCK expressed in baculovirus using Fluorescein-Poly GT as substrate at 100 nM
[26] = target: T1, Tyrosine-protein kinase FRK; test: Inhibition of GST-tagged full length human recombinant FRK expressed in baculovirus using Fluorescein-Poly GT as substrate
HUVEC = test: Antiangiogenic activity in HUVEC after 72 hrs by MTT assay; assay type: functional, cell-based; settings: Homo sapiens
[27] = target: Tyrosine-protein kinase JAK2 (Homo sapiens) (UniProt O60674); settings: 100 nM
Description: Inhibition of GST-tagged human recombinant JAK2 (809 to 1153 +9 residues) expressed in baculovirus using GFP-ST AT1 as substrate at 100 nM

[28] = target: Aurora kinase C (Homo sapiens) (UniProt Q9UQB9); settings: 100 nM
Description: Inhibition of full length His-tagged human recombinant Aurora C expressed in baculovirus using Fluorescein-CREBtide as substrate at 100 nM

[29] = Oral bioavailability in Swiss mouse plasma at 20 mg/kg by LC/MS/MS analysis; assay type: ADME, organism-based
[30] = Antiangiogenic activity in HRMEC after 72 hrs by MTT assay; assay type: functional, Homo sapiens
[31] = target: Platelet-derived growth factor receptor alpha (Homo sapiens, UniProt P16234); test: Inhibition of full length GST-tagged human recombinant PDGFRalpha expressed in baculovirus using Fluorescein-Poly GT as substrate at 100 nM
[32] = target: Serine/threonine-protein kinase Nek2 (Homo sapiens) (UniProt P51955); settings: 100 nM
Description: Inhibition of HIS-tagged full length human recombinant NEK2 expressed in baculovirus using Fluorescein-PKC as substrate at 100 nM

Homo sapiens = species: Homo sapiens; settings: 100 nM
Description: Inhibition of CK1 (unknown origin) at 100 nM

[33] = target: Platelet-derived growth factor receptor beta (Homo sapiens) (UniProt P09619); settings: 100 nM
Description: Inhibition of His-tagged human recombinant PDGFRbeta (558 to 1106 residues) expressed in baculovirus using Fluorescein-Poly GT as substrate at 100 nM

[34] = target: T2, Proto-oncogene tyrosine-protein kinase Src; test: Inhibition of full length His-tagged human recombinant cSRC expressed in baculovirus using Fluorescein-Poly GT as substrate
A549 = test: Antiproliferative activity against human A549 cells after 72 hrs by MTT assay; assay type: functional, cell-based; settings: A549, 72 h
[35] = system: Tyrosine-protein kinase ABL1 (Homo sapiens), P00519 [T315I]; settings: 100 nM
Description: Inhibition of His-tagged full length human recombinant ABL1 T315I mutant expressed in baculovirus using Fluorescein-Poly GT as substrate at 100 nM

[36] = target: Macrophage-stimulating protein receptor (Homo sapiens) (UniProt Q04912); settings: 100 nM
Description: Inhibition of GST-tagged human recombinant MST1R (983 to 1400 residues) expressed in baculovirus using Fluorescein-Poly GT as substrate at 100 nM

[37] = target: Fibroblast growth factor receptor 1 (Homo sapiens) (UniProt P11362); settings: 100 nM
Description: Inhibition of His-tagged human recombinant FGFR1 (308 to 731 residues) expressed in baculovirus using Fluorescein-Poly GT as substrate at 100 nM

[38] = target: Inhibitor of nuclear factor kappa-B kinase subunit beta (Homo sapiens) (UniProt O14920); settings: 100 nM
Description: Inhibition of GST-tagged full length human recombinant IKKbeta expressed in baculovirus using Fluorescein-Poly GT as substrate at 100 nM

[39] = target: Tyrosine-protein kinase ITK/TSK (Homo sapiens) (UniProt Q08881); settings: 100 nM
Description: Inhibition of GST-tagged full length human recombinant ITK expressed in baculovirus using Fluorescein-Poly GT as substrate at 100 nM

[40] = target: Tyrosine-protein kinase Fyn (Homo sapiens, UniProt P06241); test: Inhibition of His-tagged full length human recombinant FYN expressed in baculovirus using Fluorescein-Poly GT as substrate
Sequence of Tyrosine-protein kinase Fyn (P06241 whole entry): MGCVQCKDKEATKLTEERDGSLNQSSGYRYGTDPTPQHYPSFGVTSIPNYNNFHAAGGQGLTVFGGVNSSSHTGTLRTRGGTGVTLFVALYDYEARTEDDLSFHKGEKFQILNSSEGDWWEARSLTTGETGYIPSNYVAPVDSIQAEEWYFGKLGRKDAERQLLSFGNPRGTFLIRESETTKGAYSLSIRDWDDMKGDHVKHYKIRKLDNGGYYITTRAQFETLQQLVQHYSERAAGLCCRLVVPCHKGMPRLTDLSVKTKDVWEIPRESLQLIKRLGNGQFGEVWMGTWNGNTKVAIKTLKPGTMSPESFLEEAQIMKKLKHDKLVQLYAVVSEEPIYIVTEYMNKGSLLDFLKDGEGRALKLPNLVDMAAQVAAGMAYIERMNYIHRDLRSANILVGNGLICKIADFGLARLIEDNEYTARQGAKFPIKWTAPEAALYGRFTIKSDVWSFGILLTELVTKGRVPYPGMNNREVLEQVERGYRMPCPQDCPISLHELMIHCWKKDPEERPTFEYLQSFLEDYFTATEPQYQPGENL

T2 sequence (P12931 2-536 limits assumed): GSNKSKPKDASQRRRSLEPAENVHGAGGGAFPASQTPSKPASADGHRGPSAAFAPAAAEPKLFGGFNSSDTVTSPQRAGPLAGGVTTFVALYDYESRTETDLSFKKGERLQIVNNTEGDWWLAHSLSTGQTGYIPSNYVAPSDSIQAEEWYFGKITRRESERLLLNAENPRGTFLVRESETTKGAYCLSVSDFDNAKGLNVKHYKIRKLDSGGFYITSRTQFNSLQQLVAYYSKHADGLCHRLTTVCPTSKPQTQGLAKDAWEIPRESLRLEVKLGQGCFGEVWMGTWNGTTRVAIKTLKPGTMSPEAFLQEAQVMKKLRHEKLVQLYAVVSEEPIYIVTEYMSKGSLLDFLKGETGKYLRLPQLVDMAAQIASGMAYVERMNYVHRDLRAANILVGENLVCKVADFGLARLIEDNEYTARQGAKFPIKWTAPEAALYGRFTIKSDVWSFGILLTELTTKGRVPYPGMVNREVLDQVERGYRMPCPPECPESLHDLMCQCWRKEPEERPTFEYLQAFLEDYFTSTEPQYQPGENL
T1 sequence (P42685 whole entry): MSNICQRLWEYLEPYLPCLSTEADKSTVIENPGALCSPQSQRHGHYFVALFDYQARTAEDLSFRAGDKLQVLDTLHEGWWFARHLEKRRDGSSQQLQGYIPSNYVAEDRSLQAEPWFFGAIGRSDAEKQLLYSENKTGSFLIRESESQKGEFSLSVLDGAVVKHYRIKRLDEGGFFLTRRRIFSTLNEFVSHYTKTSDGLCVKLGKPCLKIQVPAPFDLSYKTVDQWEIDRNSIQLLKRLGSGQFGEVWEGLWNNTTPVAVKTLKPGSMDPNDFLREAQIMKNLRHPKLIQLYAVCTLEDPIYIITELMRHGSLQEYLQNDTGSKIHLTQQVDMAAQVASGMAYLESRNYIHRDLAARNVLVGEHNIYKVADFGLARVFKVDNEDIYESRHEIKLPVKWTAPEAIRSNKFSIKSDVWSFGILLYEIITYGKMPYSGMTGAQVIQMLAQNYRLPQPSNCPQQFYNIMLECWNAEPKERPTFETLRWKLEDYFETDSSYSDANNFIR
Sequence of Megakaryocyte-associated tyrosine-protein kinase (Homo sapiens) (P42679 whole entry): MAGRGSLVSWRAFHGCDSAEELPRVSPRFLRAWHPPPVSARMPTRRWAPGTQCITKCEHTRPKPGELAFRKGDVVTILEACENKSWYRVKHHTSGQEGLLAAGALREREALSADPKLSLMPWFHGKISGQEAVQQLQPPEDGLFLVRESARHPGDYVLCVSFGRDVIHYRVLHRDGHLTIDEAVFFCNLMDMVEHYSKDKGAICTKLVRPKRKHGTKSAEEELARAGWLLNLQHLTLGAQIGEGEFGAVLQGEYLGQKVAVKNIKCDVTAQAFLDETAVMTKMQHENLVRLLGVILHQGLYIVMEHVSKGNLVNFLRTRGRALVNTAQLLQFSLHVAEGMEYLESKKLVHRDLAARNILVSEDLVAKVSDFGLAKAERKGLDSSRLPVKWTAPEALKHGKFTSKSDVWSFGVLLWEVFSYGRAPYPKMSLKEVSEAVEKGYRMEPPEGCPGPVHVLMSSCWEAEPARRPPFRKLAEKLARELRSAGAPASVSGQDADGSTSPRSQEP
Sequence of Tyrosine-protein kinase BTK (Homo sapiens) (Q06187 whole entry): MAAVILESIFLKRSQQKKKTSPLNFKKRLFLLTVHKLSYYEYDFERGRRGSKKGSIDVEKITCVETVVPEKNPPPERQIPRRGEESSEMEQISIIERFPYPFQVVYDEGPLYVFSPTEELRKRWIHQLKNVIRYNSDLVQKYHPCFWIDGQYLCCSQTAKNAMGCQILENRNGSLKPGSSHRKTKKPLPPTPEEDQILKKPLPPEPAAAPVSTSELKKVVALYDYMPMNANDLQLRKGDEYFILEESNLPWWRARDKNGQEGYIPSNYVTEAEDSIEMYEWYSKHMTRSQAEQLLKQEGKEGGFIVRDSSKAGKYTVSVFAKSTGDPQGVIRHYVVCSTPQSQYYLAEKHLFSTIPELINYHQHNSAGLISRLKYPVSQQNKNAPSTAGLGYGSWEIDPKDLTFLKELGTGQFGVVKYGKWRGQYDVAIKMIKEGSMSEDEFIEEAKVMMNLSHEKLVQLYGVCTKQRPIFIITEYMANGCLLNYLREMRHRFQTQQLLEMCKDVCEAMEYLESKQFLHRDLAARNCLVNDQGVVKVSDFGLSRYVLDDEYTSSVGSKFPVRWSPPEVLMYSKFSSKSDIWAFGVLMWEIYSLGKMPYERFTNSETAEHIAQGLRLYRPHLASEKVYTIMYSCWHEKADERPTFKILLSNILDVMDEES
Sequence of Serine/threonine-protein kinase Nek2 (Homo sapiens) (P51955 whole entry): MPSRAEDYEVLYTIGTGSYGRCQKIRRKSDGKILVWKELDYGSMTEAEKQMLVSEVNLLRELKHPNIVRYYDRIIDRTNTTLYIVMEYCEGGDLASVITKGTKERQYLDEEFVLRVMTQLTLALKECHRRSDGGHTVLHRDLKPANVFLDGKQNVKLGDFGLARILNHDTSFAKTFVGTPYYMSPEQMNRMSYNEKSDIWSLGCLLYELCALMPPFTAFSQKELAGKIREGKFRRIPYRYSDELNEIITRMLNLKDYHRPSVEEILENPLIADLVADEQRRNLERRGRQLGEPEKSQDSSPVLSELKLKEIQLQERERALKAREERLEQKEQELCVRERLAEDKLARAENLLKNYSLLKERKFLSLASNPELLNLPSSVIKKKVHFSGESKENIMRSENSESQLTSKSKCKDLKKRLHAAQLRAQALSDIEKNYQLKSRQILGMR
Sequence of Fibroblast growth factor receptor 1 (Homo sapiens) (P11362 22-822 limits assumed): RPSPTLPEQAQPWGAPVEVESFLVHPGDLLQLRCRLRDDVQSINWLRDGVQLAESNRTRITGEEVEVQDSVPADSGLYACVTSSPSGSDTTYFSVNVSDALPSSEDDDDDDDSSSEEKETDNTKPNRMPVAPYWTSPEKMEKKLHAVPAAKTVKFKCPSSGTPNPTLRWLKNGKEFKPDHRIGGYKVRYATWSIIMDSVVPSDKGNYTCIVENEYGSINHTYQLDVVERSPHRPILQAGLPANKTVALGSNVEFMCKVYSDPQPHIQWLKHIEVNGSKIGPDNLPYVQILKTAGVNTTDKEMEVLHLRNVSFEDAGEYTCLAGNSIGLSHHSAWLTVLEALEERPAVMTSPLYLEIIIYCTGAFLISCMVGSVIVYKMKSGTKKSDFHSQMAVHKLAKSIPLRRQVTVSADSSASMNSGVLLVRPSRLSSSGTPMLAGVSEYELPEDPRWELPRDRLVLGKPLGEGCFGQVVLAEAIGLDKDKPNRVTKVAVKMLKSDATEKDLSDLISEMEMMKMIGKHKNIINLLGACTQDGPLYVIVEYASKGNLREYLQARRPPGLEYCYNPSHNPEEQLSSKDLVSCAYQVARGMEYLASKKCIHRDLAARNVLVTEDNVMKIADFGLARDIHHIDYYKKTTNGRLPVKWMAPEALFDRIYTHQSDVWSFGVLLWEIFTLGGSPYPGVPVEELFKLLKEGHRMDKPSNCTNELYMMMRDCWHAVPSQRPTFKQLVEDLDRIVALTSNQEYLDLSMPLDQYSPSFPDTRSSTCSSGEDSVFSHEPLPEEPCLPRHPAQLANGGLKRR
Sequence of Tyrosine-protein kinase ITK/TSK (Homo sapiens) (Q08881 whole entry): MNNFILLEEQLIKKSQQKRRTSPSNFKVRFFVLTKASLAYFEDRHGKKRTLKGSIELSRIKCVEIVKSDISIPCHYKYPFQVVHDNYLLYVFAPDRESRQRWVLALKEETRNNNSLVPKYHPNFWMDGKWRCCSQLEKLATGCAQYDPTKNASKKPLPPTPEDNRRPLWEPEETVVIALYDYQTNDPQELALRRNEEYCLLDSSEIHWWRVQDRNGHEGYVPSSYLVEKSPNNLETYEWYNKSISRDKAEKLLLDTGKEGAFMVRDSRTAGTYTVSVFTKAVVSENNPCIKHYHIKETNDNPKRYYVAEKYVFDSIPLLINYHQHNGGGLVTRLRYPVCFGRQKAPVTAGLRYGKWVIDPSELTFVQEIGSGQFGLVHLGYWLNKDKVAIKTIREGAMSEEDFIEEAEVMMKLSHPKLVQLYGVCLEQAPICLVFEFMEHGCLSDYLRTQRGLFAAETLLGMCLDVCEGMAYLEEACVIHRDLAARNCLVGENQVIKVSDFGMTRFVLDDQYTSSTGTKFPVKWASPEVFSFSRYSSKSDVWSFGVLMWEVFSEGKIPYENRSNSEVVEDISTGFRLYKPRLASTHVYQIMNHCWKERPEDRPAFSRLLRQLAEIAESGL
Sequence of Testis-specific serine/threonine-protein kinase 2 (Homo sapiens) (Q96PF2 whole entry): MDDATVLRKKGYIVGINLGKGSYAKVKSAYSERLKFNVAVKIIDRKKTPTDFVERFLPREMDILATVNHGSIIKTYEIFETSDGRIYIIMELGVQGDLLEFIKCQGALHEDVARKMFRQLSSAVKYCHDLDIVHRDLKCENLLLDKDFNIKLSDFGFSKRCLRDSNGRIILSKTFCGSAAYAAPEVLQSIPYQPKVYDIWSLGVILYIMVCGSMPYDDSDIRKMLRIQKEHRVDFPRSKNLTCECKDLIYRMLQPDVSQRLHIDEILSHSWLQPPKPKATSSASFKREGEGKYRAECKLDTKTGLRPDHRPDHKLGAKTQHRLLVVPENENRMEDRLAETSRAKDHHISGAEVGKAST

COC(=O)c1cc2cc(NCc3cc(NC(=O)c4cc(-n5cnc(C)c5)cc(C(F)(F)F)c4)ccc3C)cnc2[nH]1
49%: inhibition [17]
< 40%: inhibition [1] | inhibition [2] | inhibition [3] | inhibition [4] | inhibition [6] | inhibition [8] | inhibition [9] | inhibition [10] | inhibition [11] | inhibition [13] | inhibition [14] | inhibition [15] | inhibition [16] | inhibition [18] | inhibition [19] | inhibition [20] | inhibition [22] | inhibition [23] | inhibition [24] | inhibition [27] | inhibition [28] | inhibition [32] | inhibition (Homo sapiens) | inhibition [33] | inhibition [35] | inhibition [36] | inhibition [37] | inhibition [38] | inhibition [39]
62 nM: IC50 [26] | EC50 [30]
68%: inhibition [31]
51 nM: IC50 [21]
26%: inhibition at 30 µM (hERG (KCNH2))
34 nM: EC50 (HUVEC)
47%: bioavailability [29]
610 ng/mL: Cmax [12]
> 80%: inhibition [5] | inhibition [7] | inhibition [25]
131 nM: IC50 [40]
40 nM: IC50 [34]
64 nM: EC50 (A549)
